# Assay results reported in US8637510B2, “Morpholinothiazoles as alpha 7 positive allosteric modulators” (Janssen Pharmaceutica NV, priority 2009, dated 2014).
# Key:
# [1] = target: T1, human alpha 7-wt nAChR (Homo sapiens, UniProt P36544); assay: Ca2+ flux imaging (FDSS) (Protocol B); assay type: cell-based; conditions: for Emax: efficacy of 100 μM choline defined as 100% in the absence of a PAM, read-out: a7-PAM-G_[33]_Eff_Curve_FI % Efficacy; for EC50: potentiation of 100 μM choline, compounds 0.01 μM to 30 μM, read-out: a7-PAM-G_[33]_pEC50 pEC50 (converted)
# T1 construct: expressed in transfected cells
# T1 sequence (P36544 23-502): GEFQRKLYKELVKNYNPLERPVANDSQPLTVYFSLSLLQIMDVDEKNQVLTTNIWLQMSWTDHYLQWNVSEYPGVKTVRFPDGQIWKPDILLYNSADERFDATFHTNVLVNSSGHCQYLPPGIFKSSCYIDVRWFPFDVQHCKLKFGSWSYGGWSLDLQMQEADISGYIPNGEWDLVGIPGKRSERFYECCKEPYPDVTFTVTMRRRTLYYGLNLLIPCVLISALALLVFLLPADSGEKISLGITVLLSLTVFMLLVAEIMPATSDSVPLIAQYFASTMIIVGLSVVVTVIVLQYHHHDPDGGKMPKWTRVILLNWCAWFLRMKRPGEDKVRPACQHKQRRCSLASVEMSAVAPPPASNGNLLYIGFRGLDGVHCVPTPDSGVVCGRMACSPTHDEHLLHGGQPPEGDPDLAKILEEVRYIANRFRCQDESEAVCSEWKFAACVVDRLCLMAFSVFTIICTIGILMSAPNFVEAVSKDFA
# Outline: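 Fluo-4AM-loaded cells expressing human α7-wt nAChR, in HBSS with 10 mM HEPES, 5 mM CaCl2, 0.1% BSA, received compound (0.01–30 μM), typically 10 min before 100 μM choline, with calcium flux read in real time. Potentiation is relative to choline alone (100%); EC50 from sigmoidal curves.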
# [2] = target: T2, human alpha 7-wt nAChR-expressing GH4C1 cells (Homo sapiens, UniProt P36544); assay: Patch-clamp current recording (whole-cell voltage-clamp, PAM type classification); assay type: cell-based; design: key: Type 0 compounds minimally change the effect size of the current elicited by 1 mM choline.; Type 1 compounds enhance the effect size of the current elicited by 1 mM choline but minimally alter the kinetics of the receptor.; Type 2 compounds enhance the effect size of the current elicited by 1 mM choline while reducing the rate and/or the extent of desensitization.; Type 3 compounds enhance the effect size of the current elicited by 1 mM choline. When tested at higher concentrations up to 10 μM they completely inhibit desensitization; Type 4 compounds allow for an initial desensitization of the receptor followed by a re-opening of the receptor during agonist application; conditions: 1 mM choline
# T2 construct: expressed in transfected cells
# T2 sequence (P36544 23-502): as above
# Outline: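 Whole-cell voltage clamp of GH4C1 cells stably expressing human wild-type α7 nAChR, with compound co-applied with 1 mM choline via rapid (<100 ms) solution switching; external pH 7.3, CsCl-based internal solution, 1.5-3 MΩ electrodes. PAM type (0-4) assigned from current kinetics when peak potentiation reached ≥200% of control choline response.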
Compound,Emax [1] [%],EC50 [1] [µM],melting point [°C],PAM_Type PAM type [2]
"Cc1cc(-c2sc(N3CC4CCC(C3)O4)nc2CNC(=O)c2ccc(F)cc2C)cc(C)n1 [Compound 208, N-[[5-(2,6-dimethyl-4-pyridinyl)-2-(8-oxa-3-azabicyclo[3.2.1]oct-3-y1)-4-thiazolyl]methyl]-4-fluoro-2-methyl-benzamide]",898,0.603,194,2
"Cc1cc(-c2sc(N3CC4CCC(C3)O4)nc2CNC(=O)CC2CC2)cc(C)n1 [Compound 209, N-[[5-(2,6-dimethyl-4-pyridinyl)-2-(8-oxa-3-azabicyclo[3.2.1]oct-3-y1)-4-thiazolyl]methyl]-cyclopropaneacetamide]",705,3.16,161,0
